Data taken from US20240018161A1, “MODULATORS OF CYSTIC FIBROSIS TRANSMEMBRANE CONDUCTANCE REGULATOR” (VERTEX PHARMACEUTICALS INCORPORATED, priority 2020, published 2024).
pEC50: −log10 of the molar value. Where two headings read alike, the source gives them in different places.

Target: CFTR-mediated chloride transport in human intestinal epithelial enteroid cells (Homo sapiens, UniProt P13569)
Experiment: Membrane potential dye, Enteroid Assay A
Format: cell-based
Conditions: for pEC50: read-out: Ent. A EC50
Summary of the method: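 Membrane potential dye (20 μM methyl oxonol, with 30 μM CaCCinh-A01 and 30 μM Chicago Sky Blue) loaded 25 min at room temperature into ROCK-inhibitor-seeded human enteroid cells. Chloride-free stimulation buffer triggered transport, followed by 15 min fluorescence. % Activity relative to 3 μM/3 μM/300 nM triple-combination control.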

[1] = enteroid cells incubated with test compound 18-24 hours, acute 10 μM forskolin and 300 nM N-[2,4-bis(1,1-dimethylethyl)-5-hydroxyphenyl]-1,4-dihydro-4-oxoquinoline-3-carboxamide
[2] = percentage of chloride transport of triple combination control (3 μM N-[(6-amino-2-pyridyl)sulfonyl]-6-(3-fluoro-5-isobutoxy-phenyl)-2-[(4S)-2,2,4-trimethylpyrrolidin-1-yl]pyridine-3-carboxamide based)

Sequence of CFTR-mediated chloride transport in human intestinal epithelial enteroid cells (P13569 with tags, fused parts or gaps DEL508-508): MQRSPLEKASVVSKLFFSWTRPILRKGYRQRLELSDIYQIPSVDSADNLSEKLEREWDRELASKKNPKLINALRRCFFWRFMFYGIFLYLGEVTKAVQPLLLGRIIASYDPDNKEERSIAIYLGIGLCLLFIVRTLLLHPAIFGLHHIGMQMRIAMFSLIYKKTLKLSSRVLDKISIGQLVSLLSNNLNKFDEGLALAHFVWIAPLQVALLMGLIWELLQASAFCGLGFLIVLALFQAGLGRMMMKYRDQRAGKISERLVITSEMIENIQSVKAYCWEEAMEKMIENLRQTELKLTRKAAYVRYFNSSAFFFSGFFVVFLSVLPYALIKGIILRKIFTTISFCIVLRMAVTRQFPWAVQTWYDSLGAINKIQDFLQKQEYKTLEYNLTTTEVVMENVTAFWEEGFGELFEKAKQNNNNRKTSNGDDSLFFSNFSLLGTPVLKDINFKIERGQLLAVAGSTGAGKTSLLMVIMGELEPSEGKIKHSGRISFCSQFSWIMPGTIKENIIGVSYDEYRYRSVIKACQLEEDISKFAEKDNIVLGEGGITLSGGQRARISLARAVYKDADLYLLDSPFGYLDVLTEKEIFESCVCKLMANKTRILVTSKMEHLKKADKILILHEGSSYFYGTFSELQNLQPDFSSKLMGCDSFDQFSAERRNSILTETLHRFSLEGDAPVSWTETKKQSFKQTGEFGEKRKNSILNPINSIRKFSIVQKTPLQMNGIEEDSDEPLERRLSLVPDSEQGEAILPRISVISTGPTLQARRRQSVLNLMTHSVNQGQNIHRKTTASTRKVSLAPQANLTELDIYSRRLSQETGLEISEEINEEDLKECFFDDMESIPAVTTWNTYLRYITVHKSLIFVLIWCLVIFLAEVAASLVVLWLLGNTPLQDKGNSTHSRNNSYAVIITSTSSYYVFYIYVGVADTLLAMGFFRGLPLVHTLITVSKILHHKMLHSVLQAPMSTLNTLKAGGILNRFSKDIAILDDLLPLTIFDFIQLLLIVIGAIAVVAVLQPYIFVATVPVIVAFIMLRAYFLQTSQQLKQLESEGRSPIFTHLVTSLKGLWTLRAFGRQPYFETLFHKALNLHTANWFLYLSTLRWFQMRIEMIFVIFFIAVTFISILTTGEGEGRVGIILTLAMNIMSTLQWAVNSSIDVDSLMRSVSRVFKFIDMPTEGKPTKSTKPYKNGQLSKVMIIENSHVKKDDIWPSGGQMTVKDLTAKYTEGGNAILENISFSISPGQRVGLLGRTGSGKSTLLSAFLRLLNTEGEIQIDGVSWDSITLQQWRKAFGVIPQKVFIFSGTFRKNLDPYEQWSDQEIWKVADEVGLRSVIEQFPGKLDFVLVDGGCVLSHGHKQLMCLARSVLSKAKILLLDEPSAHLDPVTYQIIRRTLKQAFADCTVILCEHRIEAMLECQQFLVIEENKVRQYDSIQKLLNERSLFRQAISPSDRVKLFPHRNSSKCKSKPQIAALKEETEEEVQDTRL

Compound	Ent. A Max Activity (%) (Enteroid Assay A)	pEC50 (Enteroid Assay A)	Ent. A Max Activity (%)	pEC50 [1]	Ent. A Max Activity (%) [2]
Cc1cccc(C)c1-c1cc2nc(n1)NS(=O)(=O)c1cccc(c1)C(=O)N1C[C@@H](CN(C3CC4(CCCCC4)C3)C[C@H]1C(C)C)O2 [Compound 128, (16R,20R)-12-(2,6-dimethylphenyl)-20-(propan-2-yl)-18-{spiro[3.5]nonan-2-yl}-15-oxa-8λ^6-thia-1,9,11,18,22-pentaazatetracyclo[14.4.1.13,7.110,14]tricosa-3(23),4,6,10(22),11,13-hexaene-2,8,8-trione]	++ (++ is 30-60%)	> 6.00			
Cc1cccc(C)c1-c1cc2nc(n1)NS(=O)(=O)c1cccc(c1)C(=O)N1C[C@@H](CNC[C@@H]1CCC(C)C)O2 [Compound 130, (16R,20S)-12-(2,6-Dimethylphenyl)-20-(3-methylbutyl)-15-oxa-8λ^6-thia-1,9,11,18,22-pentaazatetracyclo[14.4.1.13,7.110,14]tricosa-3(23),4,6,10(22),11,13-hexaene-2,8,8-trione]	+++ (+++ is >600%)	> 6.00			
Cc1cccc(C)c1-c1cc2nc(n1)NS(=O)(=O)c1cccc(c1)C(=O)N1C[C@@H](CN(C)C[C@@H]1CCC(C)C)O2 [Compound 131, (16R,20S)-12-(2,6-Dimethylphenyl)-18-methyl-20-(3-methylbutyl)-15-oxa-8λ^6-thia-1,9,11,18,22-pentaazatetracyclo[14.4.1.13,7.110,14]tricosa-3(23),4,6,10(22),11,13-hexaene-2,8,8-trione]	++ (++ is 30-60%)	> 6.00			
Cc1cccc(C)c1-c1cc2nc(n1)NS(=O)(=O)c1cccc(c1)C(=O)N1C[C@@H](CNC[C@@H]1C(C)C)O2 [Compound 133, (16R,20S)-12-(2,6-Dimethylphenyl)-20-(propan-2-yl)-15-oxa-8λ^6-thia-1,9,11,18,22-pentaazatetracyclo[14.4.1.13,7.110,14]tricosa-3(23),4,6,10(22),11,13-hexaene-2,8,8-trione]	+++ (+++ is >600%)	> 6.00			
Cc1cccc(C)c1-c1cc2nc(n1)NS(=O)(=O)c1cccc(c1)C(=O)N1C[C@@H](CNC[C@@H]1CC(C)(C)C)O2 [Compound 135, (16R,20S)-12-(2,6-Dimethylphenyl)-20-(2,2-dimethylpropyl)-15-oxa-8λ^6-thia-1,9,11,18,22-pentaazatetracyclo[14.4.1.13,7.110,14]tricosa-3(23),4,6,10(22),11,13-hexaene-2,8,8-trione]	++ (++ is 30-60%)	> 6.00			
Cc1cccc(C)c1-c1cc2nc(n1)NS(=O)(=O)c1cccc(c1)C(=O)N1C[C@@H](CN(C)C[C@@H]1CC(C)(C)C)O2 [Compound 136, (16R,20S)-12-(2,6-Dimethylphenyl)-20-(2,2-dimethylpropyl)-18-methyl-15-oxa-8λ^6-thia-1,9,11,18,22-pentaazatetracyclo[14.4.1.13,7.110,14]tricosa-3(23),4,6,10(22),11,13-hexaene-2,8,8-trione]	+++ (+++ is >600%)	> 6.00			
Cc1cccc(C)c1-c1cc2nc(n1)NS(=O)(=O)c1cccc(c1)C(=O)N1C[C@@H](CN(C3CCCC3)C[C@H]1CC(C)C)O2 [Compound 138]	++ (++ is 30-60%)	> 6.00			
Cc1cccc(C)c1-c1cc2nc(n1)NS(=O)(=O)c1cccc(c1)C(=O)N1C[C@@H](CN(C(C)C)C[C@H]1CC(C)C)O2 [Compound 139]	+++ (+++ is >600%)	> 6.00			
Cc1cccc(C)c1-c1cc2nc(n1)NS(=O)(=O)c1cccc(c1)C(=O)N1C[C@@H](CN(C3CC4(CCCCC4)C3)C[C@H]1CC(C)C)O2 [Compound 140]	+++ (+++ is >600%)	> 6.00			
Cc1cccc(C)c1-c1cc2nc(n1)NS(=O)(=O)c1cccc(c1)C(=O)N1CCN(C3CCC(F)(F)CC3)C[C@@H](O2)[C@H]1CC(C)C [Compound 158]			+++ (key: +++ is >600%; ++ is 30-60%; + is <30%)		
Cc1cccc(C)c1-c1cc2nc(n1)NS(=O)(=O)c1cccc(c1)C(=O)N1CCNC[C@@H]1CO2 [Compound 161, (8R)-13-(2,6-Dimethylphenyl)-10-oxa-17λ^6-thia-3,6,14,16,23-pentaazatetracyclo[16.3.1.111,15.03,8]tricosa-1(21),11,13,15(23),18(22),19-hexaene-2,17,17-trione]				4.52 to 5.52	++ (++ is 30-60%)
Cc1cccc(C)c1-c1cc2nc(n1)NS(=O)(=O)c1cccc(c1)C(=O)N1CCN(C)C[C@@H]1CO2 [Compound 162, (8R)-13-(2,6-Dimethylphenyl)-6-methyl-10-oxa-17λ^6-thia-3,6,14,16,23-pentaazatetracyclo[16.3.1.111,15.03,8]tricosa-1(21),11,13,15(23),18(22),19-hexaene-2,17,17-trione]				4.52 to 5.52	++ (++ is 30-60%)
Cc1cccc(C)c1-c1cc2nc(n1)NS(=O)(=O)c1cccc(c1)C(=O)N1CCN(CCC3(C(F)(F)F)CC3)C[C@@H]1CO2 [Compound 163, (8R)-13-(2,6-Dimethylphenyl)-6-{2-[1-(trifluoromethyl)cyclopropyl]ethyl}-10-oxa-17λ^6-thia-3,6,14,16,23-pentaazatetracyclo[16.3.1.111,15.03,8]tricosa-1(22),11(23),12,14,18,20-hexaene-2,17,17-trione]				> 6.00	+++ (+++ is >60%)
Cc1cccc(C)c1-c1cc2nc(n1)NS(=O)(=O)c1cccc(c1)C(=O)N1CCN(Cc3ccccc3)C[C@@H]1CO2 [Compound 164, (8R)-6-Benzyl-13-(2,6-dimethylphenyl)-10-oxa-17λ^6-thia-3,6,14,16,23-pentaazatetracyclo[16.3.1.111,15.03,8]tricosa-1(21),11,13,15(23),18(22),19-hexaene-2,17,17-trione]				> 6.00	+++ (+++ is >60%)

Second part, led by results:

Ent. A Max Activity (%) (Enteroid Assay A)	pEC50 (Enteroid Assay A)	Compound	Ent. A Max Activity (%)	pEC50 [1]	Ent. A Max Activity (%) [2]
+++ (+++ is >600%)	> 6.00	Cc1cccc(C)c1-c1cc2nc(n1)NS(=O)(=O)c1cccc(c1)C(=O)N1C[C@@H](CN(C3CC4(CCCC4)C3)C[C@H]1CC(C)C)O2 [Compound 141]			
+++ (+++ is >600%)	> 6.00	Cc1cccc(C)c1-c1cc2nc(n1)NS(=O)(=O)c1cccc(c1)C(=O)N1C[C@@H](CN(C3CCC(F)(F)CC3)C[C@H]1CC(C)C)O2 [Compound 142]			
+++ (+++ is >600%)	> 6.00	Cc1cccc(C)c1-c1cc2nc(n1)NS(=O)(=O)c1cccc(c1)C(=O)N1C[C@@H](CN(CCC(C)(C)C)C[C@H]1CC(C)C)O2 [Compound 143]			
++ (++ is 30-60%)	> 6.00	Cc1cccc(C)c1-c1cc2nc(n1)NS(=O)(=O)c1cccc(c1)CN1C[C@@H](CN(CCC(C)(C)C)CC1=O)O2 [Compound 145]			
+++ (+++ is >600%)	> 6.00	Cc1cccc(C)c1-c1cc2nc(n1)NS(=O)(=O)c1cccc(c1)C(=O)N1C[C@@H](CN(C3CCC(F)(F)CC3)C[C@@H]1C(C)C)O2 [Compound 146]			
+++ (+++ is >600%)	> 6.00	Cc1cccc(C)c1-c1cc2nc(n1)NS(=O)(=O)c1cccc(c1)C(=O)N1C[C@@H](CN(C3CC4(CCCC4)C3)C[C@@H]1C(C)C)O2 [Compound 147]			
+++ (+++ is >600%)	> 6.00	Cc1cccc(C)c1-c1cc2nc(n1)NS(=O)(=O)c1cccc(c1)C(=O)N1C[C@@H](CN(C3CC4(CCCCC4)C3)C[C@@H]1C(C)C)O2 [Compound 148]			
+++ (+++ is >600%)	> 6.00	Cc1cccc(C)c1-c1cc2nc(n1)NS(=O)(=O)c1cccc(c1)C(=O)N1C[C@@H](CN(C)C[C@@H]1C(C)C)O2 [Compound 149]			
++ (++ is 30-60%)	> 6.00	Cc1cccc(C)c1-c1cc2nc(n1)NS(=O)(=O)c1cccc(c1)C(=O)N1C[C@@H](CN(C3CC4(CCCCC4)C3)C[C@@H]1CC(C)C)O2 [Compound 150]			
++ (++ is 30-60%)	> 6.00	Cc1cccc(C)c1-c1cc2nc(n1)NS(=O)(=O)c1cccc(c1)C(=O)N1C[C@@H](CN(CC(C)(C)C)C[C@@H]1CC(C)C)O2 [Compound 151]			
++ (++ is 30-60%)	> 6.00	Cc1cccc(C)c1-c1cc2nc(n1)NS(=O)(=O)c1cccc(c1)C(=O)N1C[C@@H](CN(C3CCC(F)(F)CC3)C[C@@H]1CC(C)C)O2 [Compound 152]			
++ (++ is 30-60%)	> 6.00	Cc1cccc(C)c1-c1cc2nc(n1)NS(=O)(=O)c1cccc(c1)C(=O)N1C[C@@H](CN(CCC(C)(C)C)C[C@@H]1CC(C)C)O2 [Compound 153]			
+++ (+++ is >600%)	> 6.00	Cc1cccc(C)c1-c1cc2nc(n1)NS(=O)(=O)c1cccc(c1)C(=O)N1C[C@@H](CN(CC(C)(C)C)[C@@H](CC(C)C)C1)O2 [Compound 154]			
+++ (+++ is >600%)	> 6.00	Cc1cccc(C)c1-c1cc2nc(n1)NS(=O)(=O)c1cccc(c1)C(=O)N1C[C@@H](CN(CCC(C)(C)C)[C@@H](CC(C)C)C1)O2 [Compound 155]			
+++ (+++ is >600%)	> 6.00	Cc1cccc(C)c1-c1cc2nc(n1)NS(=O)(=O)c1cccc(c1)C(=O)N1C[C@@H](CN(C3CC4(CCCC4)C3)[C@@H](CC(C)C)C1)O2 [Compound 156]			
+++ (+++ is >600%)	> 6.00	Cc1cccc(C)c1-c1cc2nc(n1)NS(=O)(=O)c1cccc(c1)C(=O)N1CCN(CCC(C)(C)C)C[C@H](O2)[C@H]1CC(C)C [Compound 157]			
+++ (+++ is >600%)	> 6.00	Cc1cccc(C)c1-c1cc2nc(n1)NS(=O)(=O)c1cccc(c1)C(=O)N1CCN(CCC(C)(C)C)C[C@@H](O2)[C@H]1CC(C)C [Compound 159]			
